Laboratory results from US12060586B2, “Cell data recorders and uses thereof” (The Broad Institute, Inc., priority 2018, dated 2024).

System: Wnt signaling
Assay: Wnt signaling-driven luciferase expression in HEK293T cells
Format: cell-based, human
Details: HEK293T transfected with (LEF-TCF)7-BE3-P2A-Luc; LiCl 50 mM, 24 hours
Source text: The Wnt signaling pathway (also known as a signaling cascade) plays a crucial role in embryonic development and aberrant Wnt signaling is associated with a variety of diseases in humans (38). A recording of Wnt signaling was sought using CAMERA 2m in human cells. To achieve this goal, the expression of BE3 was placed under a (LEF-TCF)7 promoter (39) that responds to Wnt signaling to initiate downstream gene expression in CAMERA 2 m.3. […] A (LEF-TCF)7-BE3-P2A-Luc construct that expresses a firefly luciferase protein together with BE3 was included so that Wnt could be monitored simultaneously by luminescence and by high-throughput sequencing of the CCR5 recording locus. […] This increase in Wnt signaling was permanently recorded by a 53-fold increase in base editing at the CCR5 locus upon LiCl treatment (FIG. 5E).
To enable CAMERA 2m to record Wnt signaling, a (TCF/LEF)7 promoter was installed upstream BE3 and BE3-P2A-Luc to generate CAMERA 2 m.3 ((TCF/LEF)7-BE3 and ((TCF/LEF)7-BE3-P2A-Luc). TOPFlash ((TCF/LEF)7-Luc) (47) was used as a transient readout of Wnt signaling. A control plasmid that encodes the Renilla luciferase was included to normalize transfection efficiency for luminescence readout. […]
Firefly luciferase and Renilla luciferase activities were measured 24 hours after LiCl treatment. […]

`[Cl-].[Li+]` [LiCl] was tested. Which “fold increase in Wnt signaling-driven luciferase expression” value did it give?
The value was 140 fold.
